From publication PMC7663272, “Discovery of Tricyclic Pyranochromenone as Novel Bruton’s Tyrosine Kinase Inhibitors with In Vivo Antirheumatic Activity” (International Journal of Molecular Sciences, 2020)
“Also recorded” adds a separate entry of the source.

Legend:
[1] = tested on: BTK; design: method as in not given; settings: reported tricyclic BTK inhibitors, printed in Figure 2b; ref not given; cited from earlier work
[2] = molecular target: T1, BTK-wt (Homo sapiens, UniProt Q06187); experiment: HotSpot kinase enzymatic assay, BTK-wt; format: biochemical; settings: for inhibition at 10 µM: vs negative control (DMSO), mean of two separate experiments, NA = not active at 10 µM, read-out: % Inhibition (10 µM) BTK-wt; for IC50: HotSpot assay, 10 μM ATP, GraphPad Prism
T1 construct: purchased Reaction Biology Corporation
Method: (§1) Kinase enzymatic assays for BTK, BMX, TXK, TEC, ITK, EGFR, ERBB2, ERBB4, and JAK3 were performed at Reaction Biology Corporation (www.reactionbiology.com, Malvern, PA, USA) using the HotSpot assay platform. Briefly, specific kinase/substrate pairs and the required cofactors were prepared in a reaction buffer comprising 20 mM HEPES (pH 7.5), 10 mM MgCl2, 1 mM EGTA, 0.02% Brij35, 0.02 mg/mL BSA, 0.1 mM Na3VO4, 2 mM DTT, and 1% DMSO. The compounds were added to the reaction mixture and allowed to incubate. Approximately 20 min later, a mixture of ATP (Sigma-Aldrich, St. Louis, MO, USA) and ^33P ATP (PerkinElmer, Waltham, MA, USA) was added to the reaction mixture at a final concentration of 10 μM. The reactions were performed at room temperature for 120 min; subsequently, the reactions were spotted onto P81 ion exchange filter papers (Whatman Inc., Maidstone, UK). […] GraphPad Prism software was used to obtain the IC50 values and perform curve fitting.

[3] = molecular target: T2, BTK-C481S (Homo sapiens, UniProt Q06187, C481S); experiment: HotSpot kinase enzymatic assay, mutant BTK; format: biochemical; settings: vs negative control (DMSO), mean of two separate experiments
T2 construct: purchased Reaction Biology Corporation
Excerpt: To confirm the role of the electrophilic warhead groups, the acryloyl group of compound 8 was replaced with methylacryloyl (11) and propionyl (12) groups, which are less electrophilic or lack an electrophilic feature. […] The significant difference in the inhibitory activity of compounds 8 and 12 could explain the critical role of the acryloyl moiety in potentiating the BTK inhibitory activity of compound 8. […] It was also confirmed by comparison of the inhibitory activity of the representative compounds (8–10) with electrophilic warheads against wild-type BTK (BTK-wt) and mutant BTK (BTK-C481S).
as §1, with “UK). Any unbound phosphate was removed by thoroughly washing the filter papers with 0.75% phosphoric acid.” for “UK).”

[4] = tested on: collagen-induced arthritis (CIA); experiment: Murine model of collagen-induced arthritis (CIA); format: in vivo; settings: mice, 0.3 mg/kg, daily oral; t-test
Method: The in vivo efficacy of compound 8 was evaluated in a murine inflammatory model of collagen-induced arthritis (CIA). The study included four groups: a vehicle-treated control group and three treatment groups. The treatment groups comprised a dexamethasone-treated group, in which dexamethasone served as the positive control, and two treatment groups, in which animals were treated with compound 8 at doses of 10 and 50 mg/kg. Compound 8 was administered once daily for 15 days by oral gavage, and the in vivo efficacy was evaluated by measuring the clinical score and foot volume. […] There were no significant changes in the body weights of animals in all the treatment groups (data not shown) during treatment.
The animal study was approved by the Institutional Animal Care and Use Committee (IACUC) of the Korea Research Institute of Bioscience and Biotechnology on March 15, 2017, under approval number KRIBB-AEC-17090. Male DBA1/JNCrli mice (7 weeks old) were purchased from Japan CRL, Inc. The mice were housed in specific pathogen-free (SPF) conditions and were allowed ad libitum access to food and water. After 7 days of acclimatization, the mice were immunized with 0.05 mL of a type II collagen emulsion (Hooke Kit^TM Chicken Collagen, Cat. No. EK-0210 from Hooke) and Freund’s complete adjuvant by subcutaneous injection at 1.5 cm distal from the base of the tail. After 21 days, the immunized mice were administered a booster injection with 0.05 mL of a type II collagen emulsion (Hooke Kit^TM Chicken Collagen, Cat. No. EK-0211 from Hooke) and Freund’s incomplete adjuvant. The emulsions were prepared according to the manufacturer’s instructions. On day 21, the mice with CIA were randomized into four groups. The animals in the four groups were administered either 0.3 mg/kg dexamethasone (n = 5), 10 mg/kg compound 8 (n = 5), 50 mg/kg compound 8 (n = 5), or vehicle (n = 5), once a day, for […], orally. The vehicle, in which all test compounds were suspended, comprised DMAC (10%), Tween 80 (10%), and DW (80%). Clinical arthritis scores and body weights were assessed three times per week for 15 days. The paw volumes were measured using a LE7500 plethysmometer (Panlab, Barcelona, Spain) on days 0 and 42.

T1 sequence (Q06187 whole entry): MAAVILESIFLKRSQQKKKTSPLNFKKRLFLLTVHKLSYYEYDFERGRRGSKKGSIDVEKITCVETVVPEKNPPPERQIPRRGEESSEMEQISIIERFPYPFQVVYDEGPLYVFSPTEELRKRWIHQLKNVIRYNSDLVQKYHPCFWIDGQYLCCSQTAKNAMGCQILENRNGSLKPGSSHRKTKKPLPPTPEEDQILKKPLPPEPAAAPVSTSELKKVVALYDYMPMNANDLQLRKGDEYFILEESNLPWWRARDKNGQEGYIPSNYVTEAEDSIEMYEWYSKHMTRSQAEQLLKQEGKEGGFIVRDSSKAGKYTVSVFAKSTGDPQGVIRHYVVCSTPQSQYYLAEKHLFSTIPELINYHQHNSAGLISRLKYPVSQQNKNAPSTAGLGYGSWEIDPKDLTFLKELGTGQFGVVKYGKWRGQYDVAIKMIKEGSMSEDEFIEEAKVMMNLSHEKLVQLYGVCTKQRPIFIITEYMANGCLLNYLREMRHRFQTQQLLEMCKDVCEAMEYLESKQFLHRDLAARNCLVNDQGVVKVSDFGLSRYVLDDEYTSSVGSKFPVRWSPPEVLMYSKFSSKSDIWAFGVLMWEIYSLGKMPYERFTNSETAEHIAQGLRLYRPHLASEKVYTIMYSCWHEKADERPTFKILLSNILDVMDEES
T2 sequence (Q06187 whole entry C481S): as the sequence (Q06187 whole entry) above, with C481S counted along it

| Compound | BTK inhibitory activity (in words) [2] | inhibition at 10 µM [2] [%] | IC50 [2] [µM] | inhibition at 10 µM [3] [%] | IC50 [1] [µM] | clinical scores vs control [4] |
| --- | --- | --- | --- | --- | --- | --- |
| Cc1c(-c2c(F)cc(C(N)=O)c3[nH]c4c(c23)CC[C@H](C(C)(C)O)C4)cccc1-n1c(=O)c2cccc(F)c2n(C)c1=O [BMS-986142] | – | – | – | – | 0.0005 | – |
| CC1(C)Oc2cc3oc(=O)ccc3cc2C[C@@H]1O [Compound 2, S-(+)-Decursinol] | inactive | 7.7 | > 10 | – | – | – |
| CC1(C)Oc2cc3oc(=O)ccc3cc2C[C@@H]1OC(=O)/C=C/c1ccccc1 [Compound 5, (7S)-(+)-trans-Cinnamic acid, 8,8-dimethyl-2-oxo-6,7-dihydro-2H,8H-pyrano[3,2-g]chromen-7-yl ester] | no BTK inhibitory activity | – | > 10 | – | – | – |
| CC1(C)Oc2cc3oc(=O)ccc3cc2C[C@@H]1OC(=O)/C=C/c1ccc(F)cc1 [Compound 6, (7S)-(+)-trans-4-Fluorocinnamic acid, 8,8-dimethyl-2-oxo-6,7-dihydro-2H,8H-pyrano[3,2-g]chromen-7-yl ester] | no BTK inhibitory activity | – | > 10 | – | – | – |
| C=CS(=O)(=O)O[C@H]1Cc2cc3ccc(=O)oc3cc2OC1(C)C [Compound 9, (7S)-(+)-Ethenesulfonic acid, 8,8-dimethyl-2-oxo-6,7-dihydro-2H,8H-pyrano [3,2-g]chromen-7-yl ester] | – | 95.8 | 0.9 | 15.8 | – | – |
| CCC(=O)O[C@H]1Cc2cc3ccc(=O)oc3cc2OC1(C)C [Compound 12, (7S)-(+)-Propionic acid, 8,8-dimethyl-2-oxo-6,7-dihydro-2H,8H-pyrano [3,2-g]chromen-7-ylester] | completely diminished; also recorded: BTK inhibitory activity was lost | – | > 10 | – | – | – |
| C[C@@H]1C[C@H]2[C@@H]3CCC4=CC(=O)C=C[C@]4(C)[C@@]3(F)[C@@H](O)C[C@]2(C)[C@@]1(O)C(=O)CO [dexamethasone, reference compound] | – | – | – | – | – | differed significantly from those with the control |

More lines, main results first:

| BTK inhibitory activity (in words) [2] | inhibition at 10 µM [2] [%] | IC50 [2] [µM] | inhibition at 10 µM [3] [%] | Compound | IC50 [1] [µM] | clinical scores vs control [4] |
| --- | --- | --- | --- | --- | --- | --- |
| weak inhibitory activity | 32 | > 10 | – | CC(C)=CC(=O)O[C@H]1Cc2cc3ccc(=O)oc3cc2OC1(C)C [Compound 1, Decursin] | – | – |
| minimal inhibitory activity | 11.3 | > 10 | – | C/C=C/C(=O)O[C@H]1Cc2cc3ccc(=O)oc3cc2OC1(C)C [Compound 3, (7S)-(+)-But-2-enoic acid, 8,8-dimethyl-2-oxo-6,7-dihydro-2H,8H-pyrano[3,2-g]chromen-7-ylester] | – | – |
| minimal inhibitory activity | 20.3 | > 10 | – | CC1(C)Oc2cc3oc(=O)ccc3cc2C[C@@H]1OC(=O)/C=C/CBr [Compound 4] | – | – |
| relatively low BTK inhibitory activity | 34.5 | 7 | – | CC#CC(=O)O[C@H]1Cc2cc3ccc(=O)oc3cc2OC1(C)C [Compound 7, (7S)-(+)-But-2-yonic acid, 8,8-dimethyl-2-oxo-6,7-dihydro-2H,8H-pyrano[3,2-g]chromen-7-ylester] | – | – |
| – | 99.2 | 0.5 | 18.6 | CC1(C)Oc2cc3oc(=O)ccc3cc2C[C@@H]1OC(=O)CCl [Compound 10, (7S)-(+)-Chloroacetic acid, 8,8-dimethyl-2-oxo-6,7-dihydro-2H,8H-pyrano [3,2-g]chromen-7-ylester] | – | – |
| completely diminished | – | > 10 | – | C=C(C)C(=O)O[C@H]1Cc2cc3ccc(=O)oc3cc2OC1(C)C [Compound 11, (7S)-(+)-2-Methylacrylic acid, 8,8-dimethyl-2-oxo-6,7-dihydro-2H,8H-pyrano[3,2-g]chromen-7-yl ester] | – | – |
